# Legend:
# [1] = biological target: T1, hA3G degradation mediated by HIV-1 Vif (UniProt P69723+Q9HC16); test: Screening experiment for up-regulation activity to hA3G (YFP-fused hA3G co-expressed with HIV-1 Vif, fluorescence); assay type: cell-based, human; details: YFP fluorescence of cells co-expressing Vif and hA3G-YFP; excitation 485 nm, detection 520 nm; averages of duplicates
# T1 construct: expressed in transfected cells
# From the text: Based on the advances making research on the hA3G degradation mediated by HIV-1 Vif, this invention establishes a high throughput anti-HIV-1 drug screening model using hA3G degradation mediated by HIV-1 Vif as target, to screen small molecule active compounds capable of inhibiting this degradation process. The function principle of this model is that HIV-1 Vif protein and hA3G fused yellow fluorescent protein (YFP) co-expressed in the cells, then the intracellular fluorescence intensity (at […]) decreases owing to the degradation of hA3G caused by Vif and subsequent degradation of YEP fused on hA3G. By means of measuring the change of fluorescent intensity, the influence of the screened compounds on the degradation of hA3G caused by Vif can quantitatively be analyzed. Simultaneously, to differentiate the non-specific inhibitory effect of diverse ubiquitin degradation route in the samples, this invention establishes a recheck model based on the detection of P53 degradation caused by the product of adenovirus early gene, to assure that the positive samples screened out by the proposed model can specifically block the degradation of hA3G caused by Vif.
# Screening Experiment for Up-Regulation Activity to hA3G
# The cells are picked up and cultured a culture bottle. When the cells grow full of the culture bottle, old culture medium is discarded and the cells are digested with digestion medium. When the cells turn round, the digestion medium is discarded and the culture medium is added in at once, the bottom of the bottle is gently blown with a pipette to make the cells disengage the bottle bottom and disperse into single cell suspension. After counting the cells using blood cell counting chamber, the cell suspension is inoculated into a culture dish for transfection. The medium containing the plasmid to be transfected and the transfection reagents is gently mixed up and incubated at room temperature. The medium is then added into the supernatant of the cell culture and cultured for a certain period of time. The old culture medium is then sucked out, the cells are digested with digestive medium, the digestive medium is subsequently discarded and culture medium is immediately added. The medium is gently blown to disperse the cells into single cell suspension. After counting the cells using blood cell counting chamber, the cells are ready for inoculation.
# Samples of compounds[…]Pure tested compounds are dissolved in DMSO, the solution is diluted with equal proportional distilled water. The diluent is used to test the cell systems.
# Sample solution of different concentration is added into the supernatant of a cell culture. After the cells are continuously cultured, old culture medium is sucked out and the cells are blown with PBS buffer until the cells completely disengage from the culture bottle.
# The fluorescence intensity values of the cell suspension with test compound samples, positive control samples and negative control samples are respectively measured with fluorometer, the excitation wavelength is 485 nm and the detection wavelength 520 nm. Averages of duplicated measurements are taken as the results.
# The measured fluorescence intensity values of the negative control samples (blink sample) subtracted from those of test compound samples, the results are taken as YFP fluorescence of different groups. Relative fluorescence intensity=fluorescence intensity of a test sample group/fluorescence intensity of the positive control group×100% Inhibition rate of degradation=(test sample group−negative control group)/(positive control group−negative control group)×100%
# HIV-1 [2] = test: microbe, parasite or virus in culture; details: Human immunodeficiency virus 1, 96 h, read-out: inhibitory activity to HIV-1, IC50
# Procedure: (§1) The inhibitory activities of the compounds proposed in this invention to HIV-1 were measured using HIV-1 P24 antigen kit.
# (§2) DMSO solutions of samples of test compounds listed in Table 2 diluted to 8 different concentrations and the solution of the positive control AZT (azidothymidine, 0.15 ng/ml) are respectively added into 96 well plates, duplications are set for each of the dilutions, and negative control samples are also made. Aliquots of 100 μl 2×10^5 cell/ml suspension are inoculated onto the 96 well cell culture plates and cultured in an incubator under a condition of 37° C., 5% CO2 and saturated humidity. The pathologic changes of the cells are observed every day. The HIV-1 P24 antigen contents in supernatant cells are measured in 4 days (96 h) after addition of the test compounds according to the operation procedure provided by the HIV-1 P24 antigen kit.
# HIV-1 [3] = details: HIV-1 P24 antigen in supernatant 4 days (96 h) after addition of compounds
# Procedure: as §1, §2
# T1 sequence (P69723 whole entry, the tested form may be a part): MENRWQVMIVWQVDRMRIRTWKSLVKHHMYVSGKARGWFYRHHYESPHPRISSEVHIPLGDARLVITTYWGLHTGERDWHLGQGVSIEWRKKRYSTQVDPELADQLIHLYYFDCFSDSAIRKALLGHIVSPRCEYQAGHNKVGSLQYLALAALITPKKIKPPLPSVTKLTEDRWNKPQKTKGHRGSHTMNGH
# T1 sequence (Q9HC16 whole entry, the tested form may be a part): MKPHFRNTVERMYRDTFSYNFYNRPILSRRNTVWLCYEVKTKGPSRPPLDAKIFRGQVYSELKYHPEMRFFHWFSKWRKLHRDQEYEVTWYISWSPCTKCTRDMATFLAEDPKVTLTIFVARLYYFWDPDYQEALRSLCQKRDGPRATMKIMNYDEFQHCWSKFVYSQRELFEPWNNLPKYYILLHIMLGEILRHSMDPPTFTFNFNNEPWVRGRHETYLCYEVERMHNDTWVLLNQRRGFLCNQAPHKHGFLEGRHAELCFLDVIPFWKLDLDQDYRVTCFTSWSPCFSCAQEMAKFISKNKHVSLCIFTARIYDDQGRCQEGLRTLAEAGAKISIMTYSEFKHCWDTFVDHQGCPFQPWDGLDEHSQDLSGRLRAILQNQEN
compound,measurement,setting,value
COc1ccc(C(=O)Nc2cc(OC)c(OC)c(OC)c2)cc1NC(=O)C(C)Br (stereo not shown) [Compound 26],hA3G up-regulation activity (%),[1],42.7%
same,IC50,HIV-1 [2],0.0203 µg/mL
3-amino-4-methoxybenzanilide [Compound 2621],hA3G up-regulation activity (%),[1],36.2%
same,"inhibitory activity to HIV-1, IC50",HIV-1 [3],<0.0137 µg/mL
"CCC(=O)Nc1cc(C(=O)Oc2cc(OC)c(OC)c(OC)c2)ccc1OC [Compound 351, 3′,4′,5′-trimethoxyphenyl 3-propionamido-4-methoxybenzoate]",hA3G up-regulation activity (%),[1],36.7%
same,IC50,HIV-1 [2],0.0299 µg/mL
COc1ccc(C(=O)Oc2cc(OC)c(OC)c(OC)c2)cc1NC(=O)C(C)Br (stereo not shown) [Compound 35],hA3G up-regulation activity (%),[1],44.9%
same,IC50,HIV-1 [2],0.0223 µg/mL
"COc1ccc(C(=O)Nc2cc(OC)c(OC)c(OC)c2)cc1NC(=O)C(F)(F)F [Compound 263, N-(3′,4′,5′-trimethoxyphenyl)-3-trifluoroacetamido-4-methoxybenzamide]",hA3G up-regulation activity (%),[1],24.4%
same,IC50,HIV-1 [2],< 0.0137 µg/mL
"CCC(=O)Nc1cc(C(=O)Nc2ccc(Cl)cc2)ccc1OC [Compound 2613, N-(4′-chlorophenyl)-3-propionamido-4-methoxybenzamide]",hA3G up-regulation activity (%),[1],27.8%
same,IC50,HIV-1 [2],0.0138 µg/mL
"CCC(=O)Nc1cc(C(=O)Nc2ccc(OC)cc2)ccc1OC [Compound 2611, N-(4′-methoxyphenyl)-3-propionamido-4-methoxybenzamide]",hA3G up-regulation activity (%),[1],28.9%
same,IC50,HIV-1 [2],0.017 µg/mL
"COc1ccc(C(=O)Oc2cc(OC)c(OC)c(OC)c2)cc1N [Compound 352, 3′,4′,5′-trimethoxyphenyl 3-amino-4-methoxybenzoate]",hA3G up-regulation activity (%),[1],37.0%
same,"inhibitory activity to HIV-1, IC50",HIV-1 [3],0.0554 µg/mL
CCNc1cc(C(=O)Nc2ccc(OC)cc2)ccc1OC [Compound 42],hA3G up-regulation activity (%),[1],34.3%
"CCC(=O)Nc1cc(C(O)Cc2cc(OC)c(OC)c(OC)c2)ccc1OC (stereo not shown) [Compound 32, 1-(3′-propionamido-4′-methoxyphenyl)-2-(3″,4″,5″-trimethoxyphenyl)ethanol]",hA3G up-regulation activity (%),[1],17.6%
COc1ccc(C(=O)Oc2cc(OC)c(OC)c(OC)c2)cc1NC(=O)C(C)F (stereo not shown) [Compound 24],hA3G up-regulation activity (%),[1],18.6%
"CCC(=O)Nc1cc(C(=O)Nc2cc(OC)c[nH]2)ccc1OC [Compound 49, N-(4′-methoxypyrryl-2′-)-4-methoxy-3-propionamidobenzamide]",hA3G up-regulation activity (%),[1],9.8%
"CCC(=O)Nc1cc(C(=O)Nc2cc(OC)c(OC)c(OC)c2)cc(OC)c1F [Compound 75, N-(3′,4′,5′-trimethoxyphenyl)-3-propionamido-4-fluoro-5-methoxybenzamide]",hA3G up-regulation activity (%),[1],−1.1%
"COc1ccc(C(=O)Sc2cc(OC)c(OC)c(OC)c2)cc1NC(=O)C(C)F (stereo not drawn) [Compound 21, S-(3′,4′,5′-trimethoxyphenyl)-3-(2-fluoropropionamido)-4-methoxybenzenecarbothiolate]",hA3G up-regulation activity (%),[1],21.1%
"COc1ccc(C(=O)Nc2cc(OC)c(OC)c(OC)c2)cc1O [Compound 87, N-(3′,4′,5′-trimethoxyphenyl)-3-hydroxyl-4-methoxybenzamide]",hA3G up-regulation activity (%),[1],19.7%
COc1ccc(C(=O)Cc2cc(OC)c(OC)c(OC)c2)cc1NC(=O)CCl [Compound 28],hA3G up-regulation activity (%),[1],33.6%
CCC(=O)Nc1cc(C(=O)Nc2cc(OC)c(OC)c(OC)c2)cc(F)c1OC [Compound 77],hA3G up-regulation activity (%),[1],14.9%
CCC(=O)Nc1cc(S(=O)(=O)Nc2ccc(OC)c(OC)c2)ccc1OC [Compound 94],hA3G up-regulation activity (%),[1],16.1%
CCNc1cc(C(=O)Nc2ccc(OC)cc2)ccc1OC [Compound 37],hA3G up-regulation activity (%),[1],7.7%
"COc1ccc(C(=O)Nc2cc(OC)c(OC)c(OC)c2)cc1N [Compound 262, N-(3′,4′,5′-trimethoxyphenyl) 3-amino-4-methoxybenzamide]",hA3G up-regulation activity (%),[1],36.2%
same,IC50,HIV-1 [2],0.0244 µg/mL
"CNc1cc(C(=O)Nc2ccc(S(N)(=O)=O)c(F)c2)ccc1OC [Compound 98, N-(3′-fluoro-4′-aminosulfonylphenyl)-3-methylamino-4-methoxybenzamide]",hA3G up-regulation activity (%),[1],5.8%
CCC(=O)Nc1cc(C(=O)Nc2cccc(O)c2)ccc1OC [Compound 50],hA3G up-regulation activity (%),[1],−3.1%
"CCC(=O)Nc1ccc(C(=O)Nc2cc(OC)c(OC)c(OC)c2)cc1OC [Compound 64, N-(3′,4′,5′-trimethoxyphenyl)-3-methoxy-4-propionamidobenzamide]",hA3G up-regulation activity (%),[1],11.7%
"CCC(=O)Nc1cc(C(=O)Nc2cc(OC)c(OC)c(OC)c2)ccc1OC [Compound 261, N-(3′,4′,5′-trimethoxyphenyl) 3-propionamido-4-methoxybenzamide]",hA3G up-regulation activity (%),[1],43.9%
same,IC50,HIV-1 [2],0.0227 µg/mL

# — patent publication US8710098B2, “Group of amino substituted benzoyl derivatives and their preparation and their use” (priority 2008, dated 2014)
